ChEMBL document CHEMBL3431459, “Roche carnitine palmitoyltransferase modulator screening data (supplementary data associated with the publication CHEMBL2216752)”
Values after ≈ are worked out from the molar mass of the structure shown.

Assays:
[1] = target: T1, Carnitine O-palmitoyltransferase 1, muscle isoform (Homo sapiens, UniProt Q92523); test: SUPPLEMENTARY: Inhibition of Carnitine palmitoyltransferase 1, muscle isoform; design: species or system Muscle tissue
T1 sequence (Q92523 whole entry): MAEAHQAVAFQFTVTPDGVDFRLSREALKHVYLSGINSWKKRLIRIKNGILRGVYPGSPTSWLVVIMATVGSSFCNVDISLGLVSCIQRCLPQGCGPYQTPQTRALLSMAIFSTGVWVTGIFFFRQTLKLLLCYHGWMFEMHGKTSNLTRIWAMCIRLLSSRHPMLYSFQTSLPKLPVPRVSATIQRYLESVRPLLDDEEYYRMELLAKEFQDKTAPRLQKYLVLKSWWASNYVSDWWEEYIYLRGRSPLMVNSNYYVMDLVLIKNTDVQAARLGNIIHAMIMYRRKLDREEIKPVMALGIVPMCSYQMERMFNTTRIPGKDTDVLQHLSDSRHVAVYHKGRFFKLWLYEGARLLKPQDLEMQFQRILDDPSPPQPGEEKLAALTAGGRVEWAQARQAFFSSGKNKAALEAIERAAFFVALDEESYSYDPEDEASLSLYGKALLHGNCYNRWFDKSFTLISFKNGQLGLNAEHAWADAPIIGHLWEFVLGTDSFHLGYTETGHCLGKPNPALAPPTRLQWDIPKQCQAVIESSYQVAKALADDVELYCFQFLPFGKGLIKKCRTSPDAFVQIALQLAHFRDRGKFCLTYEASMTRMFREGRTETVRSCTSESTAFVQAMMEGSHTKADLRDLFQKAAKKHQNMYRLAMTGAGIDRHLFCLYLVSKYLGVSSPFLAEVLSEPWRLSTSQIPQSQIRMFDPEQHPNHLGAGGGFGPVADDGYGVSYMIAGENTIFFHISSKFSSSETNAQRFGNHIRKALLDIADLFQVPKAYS

[2] = target: T2, Carnitine O-palmitoyltransferase 2, mitochondrial (Homo sapiens, UniProt P23786); test: (§1) SUPPLEMENTARY: Inhibition of Carnitine palmitoyltransferase 2
T2 sequence (P23786 whole entry): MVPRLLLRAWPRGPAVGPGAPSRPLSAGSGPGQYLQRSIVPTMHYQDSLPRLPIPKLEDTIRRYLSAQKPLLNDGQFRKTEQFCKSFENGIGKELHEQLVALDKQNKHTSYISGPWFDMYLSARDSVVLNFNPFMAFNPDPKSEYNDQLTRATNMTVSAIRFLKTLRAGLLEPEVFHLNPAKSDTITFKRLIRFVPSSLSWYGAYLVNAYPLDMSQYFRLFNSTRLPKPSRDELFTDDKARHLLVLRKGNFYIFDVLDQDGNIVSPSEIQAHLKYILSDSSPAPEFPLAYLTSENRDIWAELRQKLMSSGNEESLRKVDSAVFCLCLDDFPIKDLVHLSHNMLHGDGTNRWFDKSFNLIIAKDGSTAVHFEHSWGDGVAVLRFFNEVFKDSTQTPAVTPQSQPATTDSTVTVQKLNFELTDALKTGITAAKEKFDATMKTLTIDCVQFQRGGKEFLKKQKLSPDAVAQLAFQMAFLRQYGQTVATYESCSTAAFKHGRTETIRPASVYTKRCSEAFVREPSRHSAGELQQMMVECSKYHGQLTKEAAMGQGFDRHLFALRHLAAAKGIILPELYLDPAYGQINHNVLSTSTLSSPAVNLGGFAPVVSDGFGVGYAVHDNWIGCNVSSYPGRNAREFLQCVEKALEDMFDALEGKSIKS

[3] = target: T3, Carnitine O-palmitoyltransferase 2, mitochondrial (Rattus norvegicus, UniProt P18886); test: as §1
T3 sequence (P18886 whole entry): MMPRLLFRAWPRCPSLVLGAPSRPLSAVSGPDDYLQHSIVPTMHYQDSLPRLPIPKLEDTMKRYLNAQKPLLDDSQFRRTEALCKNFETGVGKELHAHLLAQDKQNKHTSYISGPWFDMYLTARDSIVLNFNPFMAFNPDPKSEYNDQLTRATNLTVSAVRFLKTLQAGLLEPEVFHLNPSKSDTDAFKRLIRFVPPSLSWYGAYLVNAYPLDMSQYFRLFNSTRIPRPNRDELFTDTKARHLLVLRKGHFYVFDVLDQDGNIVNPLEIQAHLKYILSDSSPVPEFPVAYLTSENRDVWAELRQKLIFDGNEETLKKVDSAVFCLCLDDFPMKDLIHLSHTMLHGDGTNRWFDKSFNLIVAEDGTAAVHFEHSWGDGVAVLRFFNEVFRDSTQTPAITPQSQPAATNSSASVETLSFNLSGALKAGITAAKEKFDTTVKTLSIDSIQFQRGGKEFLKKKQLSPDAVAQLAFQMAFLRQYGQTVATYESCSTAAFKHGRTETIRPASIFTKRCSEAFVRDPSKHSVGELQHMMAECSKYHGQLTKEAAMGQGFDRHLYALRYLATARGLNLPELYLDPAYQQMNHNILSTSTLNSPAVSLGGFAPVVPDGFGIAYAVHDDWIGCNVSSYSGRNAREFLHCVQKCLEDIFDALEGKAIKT

[4] = target: T4, Carnitine O-palmitoyltransferase 1, liver isoform (Homo sapiens, UniProt P50416); test: (§2) SUPPLEMENTARY: Inhibition of Carnitine palmitoyltransferase 1, liver isoform
T4 sequence (P50416 whole entry): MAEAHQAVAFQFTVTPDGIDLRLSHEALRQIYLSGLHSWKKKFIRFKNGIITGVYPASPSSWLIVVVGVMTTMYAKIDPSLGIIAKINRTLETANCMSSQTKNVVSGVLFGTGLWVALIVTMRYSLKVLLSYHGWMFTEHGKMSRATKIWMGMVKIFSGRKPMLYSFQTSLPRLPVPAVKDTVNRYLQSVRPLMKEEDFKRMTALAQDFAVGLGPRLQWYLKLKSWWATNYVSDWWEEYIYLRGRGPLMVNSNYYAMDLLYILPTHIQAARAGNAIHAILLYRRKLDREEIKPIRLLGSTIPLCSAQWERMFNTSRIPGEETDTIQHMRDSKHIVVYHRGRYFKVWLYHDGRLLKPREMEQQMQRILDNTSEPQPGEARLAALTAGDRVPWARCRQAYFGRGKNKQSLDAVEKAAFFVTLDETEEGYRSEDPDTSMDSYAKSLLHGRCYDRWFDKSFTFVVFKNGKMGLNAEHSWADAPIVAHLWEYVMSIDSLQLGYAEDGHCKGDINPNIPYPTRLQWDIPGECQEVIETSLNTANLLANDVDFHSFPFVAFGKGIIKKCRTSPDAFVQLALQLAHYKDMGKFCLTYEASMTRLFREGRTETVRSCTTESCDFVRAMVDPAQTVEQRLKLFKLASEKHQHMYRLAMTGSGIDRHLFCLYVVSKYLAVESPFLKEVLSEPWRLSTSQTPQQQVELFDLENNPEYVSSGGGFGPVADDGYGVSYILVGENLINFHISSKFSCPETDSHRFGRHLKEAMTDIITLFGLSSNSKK

[5] = target: T5, Carnitine O-palmitoyltransferase 1, liver isoform (Rattus norvegicus, UniProt P32198); test: as §2
T5 sequence (P32198 whole entry): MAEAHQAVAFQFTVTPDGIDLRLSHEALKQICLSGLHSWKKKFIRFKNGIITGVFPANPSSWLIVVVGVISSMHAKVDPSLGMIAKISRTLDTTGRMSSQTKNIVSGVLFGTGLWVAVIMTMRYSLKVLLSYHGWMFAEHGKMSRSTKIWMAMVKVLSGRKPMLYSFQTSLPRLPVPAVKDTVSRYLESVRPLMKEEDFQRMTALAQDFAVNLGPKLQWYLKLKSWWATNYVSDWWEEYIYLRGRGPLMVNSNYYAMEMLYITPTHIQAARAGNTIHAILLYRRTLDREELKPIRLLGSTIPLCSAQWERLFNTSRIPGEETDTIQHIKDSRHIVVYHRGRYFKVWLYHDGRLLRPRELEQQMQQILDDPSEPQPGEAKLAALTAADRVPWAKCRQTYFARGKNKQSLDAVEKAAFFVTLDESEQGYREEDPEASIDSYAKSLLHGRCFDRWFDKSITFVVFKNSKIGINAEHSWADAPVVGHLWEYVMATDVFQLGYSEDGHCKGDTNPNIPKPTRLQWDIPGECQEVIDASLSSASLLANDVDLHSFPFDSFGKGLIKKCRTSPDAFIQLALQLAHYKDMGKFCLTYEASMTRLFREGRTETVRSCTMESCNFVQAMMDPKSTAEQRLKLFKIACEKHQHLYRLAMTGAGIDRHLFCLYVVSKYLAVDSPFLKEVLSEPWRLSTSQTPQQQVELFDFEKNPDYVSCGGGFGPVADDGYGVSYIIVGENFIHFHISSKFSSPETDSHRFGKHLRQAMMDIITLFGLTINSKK

[6] = SUPPLEMENTARY: Lyophilisation Solubility Assay (LYSA); format: physicochemical; conditions: read-out: Kinetic_solubility
[7] = SUPPLEMENTARY: Lipophilicity (log D) Determination by high-throughput shake-flask; format: physicochemical; conditions: octanol/water
[8] = SUPPLEMENTARY: PAMPA permeability assay; format: physicochemical; conditions: read-out: Permeability

SMILES | IC50 [1] [µM] | IC50 [2] [µM] | IC50 [3] [µM] | IC50 [4] [µM] | IC50 [5] [µM] | solubility kinetic [6] [µg/mL] | logD [7] | Papp [8] [×10⁻⁶ cm/s]
O=C(COc1ccccc1)N1CCCC[C@@H]1c1noc(C2CCCC2)n1 | > 100 | > 100 | > 100 | 0.181 | 0.106 | 20 (≈ 56.3 µM) | 3.08 | 4.38
O=C(COc1ccncc1)N1CCCC[C@@H]1c1nnc(-c2cccc(C(F)(F)F)c2)[nH]1 | 10.4 | 43.5 | 41.2 | 0.165 | 0.194 | 78 (≈ 181 µM) | 3.29 | 1.75
CC(=O)Nc1cccc(-c2nc([C@H]3CCCCN3C(=O)COc3ccccc3)n(C)n2)c1 | 43.4 | > 100 | > 100 | 0.201 | 0.282 | 63 (≈ 145 µM) | 2.75 | 2.93
Cn1cc(S(=O)(=O)c2cccc(Cl)c2)c2cc(C(=O)Nc3ccc(C(=O)O)cc3)ccc21 | 0.92 | 1.5 | 2.5 | 0.0188 | 0.0112 | 3 (≈ 6.4 µM) | 2.54 | 1.01
O=C(COc1ccccc1)N1CCCC[C@@H]1c1noc(-c2cnc3[nH]cnc3c2)n1 | 35.5 | 24.3 | 33.6 | 0.0902 | 0.238 | 109 (≈ 270 µM) | 2.36 | 3.53
CC(=O)Nc1cccc(C#C[C@H]2CCCCN2C(=O)COc2ccccc2)c1 | > 100 | > 100 | > 100 | 0.108 | 0.191 | < 1 | 3.49 | 1.79
CC(=O)Nc1cc(-c2nc([C@H]3CCCCN3C(=O)COc3ccccc3)no2)ccn1 | > 100 | > 100 | > 100 | 0.0509 | 0.327 | 113 (≈ 268 µM) | 2.54 | 5.4
COc1ccc(Cl)cc1CN1C(=O)CSc2ccc(C(=O)Nc3nc(CC(=O)O)cs3)cc21 | 1.72 | > 100 | > 100 | 0.125 | 0.0759 | 31 (≈ 61.5 µM) | 0.72 | 1.53
COc1ccc(Cl)cc1S(=O)(=O)N1COCc2ccc(C(=O)Nc3ccc(C(=O)O)cc3)cc21 | 38.6 | 3.45 | 16.6 | 0.0597 | 0.105 | 60 (≈ 119 µM) | 0.32 | 2.16
COc1ccc(Cl)cc1S(=O)(=O)N1COCc2ccc(C(=O)Nc3ccc(CC(=O)O)cc3)cc21 | 3.28 | > 100 | > 100 | 0.187 | 0.483 | 100 (≈ 193 µM) | -0.23 | 1.39
COc1ccc(Cl)cc1S(=O)(=O)N1COCc2ccc(C(=O)Nc3nc(CC(=O)O)cs3)cc21 | 1.38 | > 100 | > 100 | 0.054 | 0.0829 | 7 (≈ 13.4 µM) | -0.47 | 1.31
